Measurements as given in US11053204B2, “Pyrimidinyloxy benzene derivatives as herbicides” (FMC Corporation, priority 2015, dated 2021).

Experiments:
Assay type in all cases: in vivo
[1] = test system: blackgrass (Alopecurus myosuroides); assay: Test A postemergence, visual injury rating; conditions: 0 to 100 scale, 0 is no effect, 100 is complete control, approximately 10 days
How it was run: (§1)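 Compounds in non-phytotoxic solvent with surfactant applied as soil spray preemergence, or postemergence to plants 2-10 cm at one- to two-leaf stage, in loam/sand. After approximately 10 days in greenhouse, injury rated visually versus untreated controls, 0 (no effect) to 100 (complete control).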

[2] = test system: ragweed (common ragweed, Ambrosia elatior); assay: Test A postemergence, visual injury rating; conditions: 0 to 100 scale, 0 is no effect, 100 is complete control, approximately 10 days
How it was run: as §1

[3] = test system: galium (catchweed bedstraw, Galium aparine); assay: Test A postemergence, visual injury rating; conditions: 0 to 100 scale, 0 is no effect, 100 is complete control, approximately 10 days
How it was run: as §1

[4] = test system: pigweed (Amaranthus retroflexus); assay: Test A postemergence, visual injury rating; conditions: 0 to 100 scale, 0 is no effect, 100 is complete control, approximately 10 days
How it was run: as §1

[5] = test system: giant foxtail (Setaria faberii); assay: Test A postemergence, visual injury rating; conditions: 0 to 100 scale, 0 is no effect, 100 is complete control, approximately 10 days
How it was run: as §1

[6] = test system: corn (Zea mays); assay: Test A postemergence, visual injury rating; conditions: 0 to 100 scale, 0 is no effect, 100 is complete control, approximately 10 days
How it was run: as §1

[7] = test system: barnyardgrass (Echinochloa crus-galli); assay: Test A postemergence, visual injury rating; conditions: 0 to 100 scale, 0 is no effect, 100 is complete control, approximately 10 days
How it was run: as §1

[8] = test system: kochia (Kochia scoparia); assay: Test A postemergence, visual injury rating; conditions: 0 to 100 scale, 0 is no effect, 100 is complete control, approximately 10 days
How it was run: as §1

[9] = test system: wheat (Triticum aestivum); assay: Test A postemergence, visual injury rating; conditions: 0 to 100 scale, 0 is no effect, 100 is complete control, approximately 10 days
How it was run: as §1

[10] = test system: Italian ryegrass (Lolium multiflorum); assay: Test A postemergence, visual injury rating; conditions: 0 to 100 scale, 0 is no effect, 100 is complete control, approximately 10 days
How it was run: as §1

[11] = test system: ragweed (common ragweed, Ambrosia elatior); assay: Test A preemergence, visual injury rating
How it was run: as §1

[12] = test system: pigweed (Amaranthus retroflexus); assay: Test A preemergence, visual injury rating
How it was run: as §1

[13] = test system: giant foxtail (Setaria faberii); assay: Test A preemergence, visual injury rating
How it was run: as §1

[14] = test system: barnyardgrass (Echinochloa crus-galli); assay: Test A preemergence, visual injury rating; conditions: for Plant response rating, Barnyardgrass: 31 g ai/ha, 0 to 100 scale, 0 no effect, 100 complete control; for Barnyardgrass plant response rating: 125 g ai/ha, 0 to 100 scale (0 no effect, 100 complete control)
How it was run: as §1

[15] = test system: kochia (Kochia scoparia); assay: Test A preemergence, visual injury rating
How it was run: as §1

[16] = test system: Italian ryegrass (Lolium multiflorum); assay: Test A preemergence, visual injury rating
How it was run: as §1

[17] = test system: sedge, umbrella (small-flower umbrella sedge, Cyperus difformis); assay: Test B flooded paddy test, plant response rating; conditions: 250 g ai/ha; Flood; scale of 0 to 100 where 0 is no effect and 100 is complete control; 13 to 15 days
How it was run: (§2)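 Flooded 3 cm over soil; compound into paddy water; depth kept constant. Greenhouse 13–15 d.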

[18] = test system: barnyardgrass (Echinochloa crus-galli); assay: Test B flooded paddy test, plant response rating; conditions: 250 g ai/ha; Flood; scale of 0 to 100 where 0 is no effect and 100 is complete control; 13 to 15 days
How it was run: as §2

[19] = test system: ducksalad (Heteranthera limosa); assay: Test B flooded paddy test, plant response rating; conditions: 250 g ai/ha; Flood; scale of 0 to 100 where 0 is no effect and 100 is complete control; 13 to 15 days
How it was run: as §2

[20] = test system: rice (Oryza sativa); assay: Test B flooded paddy test, plant response rating; conditions: 250 g ai/ha; Flood; scale of 0 to 100 where 0 is no effect and 100 is complete control; 13 to 15 days
How it was run: as §2

[21] = 31 g ai/ha, 0 to 100 scale, 0 no effect, 100 complete control
[22] = 125 g ai/ha, 0 to 100 scale (0 no effect, 100 complete control)

Row | SMILES | Blackgrass plant response rating ([1]; 31 g ai/ha) | Blackgrass plant response rating ([1]; 125 g ai/ha) | Ragweed plant response rating ([2]; 31 g ai/ha) | Ragweed plant response rating ([2]; 125 g ai/ha) | Galium plant response rating ([3]; 31 g ai/ha) | Galium plant response rating ([3]; 125 g ai/ha) | Pigweed plant response rating ([4]; 31 g ai/ha) | Pigweed plant response rating ([4]; 125 g ai/ha) | Foxtail, Giant plant response rating ([5]; 31 g ai/ha) | Foxtail, Giant plant response rating ([5]; 125 g ai/ha) | Corn plant response rating ([6]; 31 g ai/ha) | Corn plant response rating ([6]; 125 g ai/ha) | Barnyardgrass plant response rating ([7]; 31 g ai/ha) | Barnyardgrass plant response rating ([7]; 125 g ai/ha) | Kochia plant response rating ([8]; 31 g ai/ha) | Kochia plant response rating ([8]; 125 g ai/ha) | Wheat plant response rating ([9]; 31 g ai/ha) | Wheat plant response rating ([9]; 125 g ai/ha) | Ryegrass, Italian plant response rating ([10]; 31 g ai/ha) | Ryegrass, Italian plant response rating ([10]; 125 g ai/ha) | further results
1 | O=C(OCC(F)(F)C(F)F)c1c(Br)cccc1Oc1ncc(Cl)cn1 [Compound 103] | 0 | 10 | 0 | 0 | 70 | 100 | 90 | 100 | 10 | 70 | 20 | 20 | 0 | 30 | 70 | 100 | 0 | 0 | 0 | 0 | Plant response rating, Ragweed [11, 21]: 0; Plant response rating, Ragweed [11, 22]: 0; Plant response rating, Pigweed [12, 21]: 40; Plant response rating, Pigweed [12, 22]: 100; Plant response rating, Foxtail, Giant [13, 21]: 10; Plant response rating, Foxtail, Giant [13, 22]: 60; Plant response rating, Barnyardgrass [14]: 0; Barnyardgrass plant response rating [14]: 50; Plant response rating, Kochia [15, 21]: 0; Plant response rating, Kochia [15, 22]: 70; Plant response rating, Ryegrass, Italian [16, 21]: 0; Plant response rating, Ryegrass, Italian [16, 22]: 0; Plant response rating, Sedge, Umbrella [17]: 95; Plant response rating, Barnyardgrass [18]: 0; Plant response rating, Ducksalad [19]: 95; Plant response rating, Rice [20]: 20
2 | CC(=NOC(C)C)c1c(Cl)cccc1Oc1ncc(Cl)cn1 [Compound 104] | 0 | 20 | 0 | 0 | 10 | 30 | 10 | 40 | 0 | 10 | 0 | 10 | 0 | 0 | 0 | 10 | 0 | 0 | 0 | 0 | Plant response rating, Ragweed [11, 21]: 0; Plant response rating, Ragweed [11, 22]: 0; Plant response rating, Pigweed [12, 21]: 0; Plant response rating, Pigweed [12, 22]: 40; Plant response rating, Foxtail, Giant [13, 21]: 0; Plant response rating, Foxtail, Giant [13, 22]: 40; Plant response rating, Barnyardgrass [14]: 0; Barnyardgrass plant response rating [14]: 30; Plant response rating, Kochia [15, 21]: 0; Plant response rating, Kochia [15, 22]: 0; Plant response rating, Ryegrass, Italian [16, 21]: 0; Plant response rating, Ryegrass, Italian [16, 22]: 0; Plant response rating, Sedge, Umbrella [17]: 75; Plant response rating, Barnyardgrass [18]: 0; Plant response rating, Ducksalad [19]: 75; Plant response rating, Rice [20]: 0
3 | CC(=NOC(C)C)c1c(Br)cccc1Oc1ncc(Cl)cn1 [Compound 105] | 0 | 10 | 0 | 0 | 10 | 20 | 10 | 30 | 0 | 0 | 0 | 0 | 0 | 0 | 0 | 10 | 0 | 0 | 0 | 0 | Plant response rating, Ragweed [11, 21]: 0; Plant response rating, Ragweed [11, 22]: 0; Plant response rating, Pigweed [12, 21]: 0; Plant response rating, Pigweed [12, 22]: 20; Plant response rating, Foxtail, Giant [13, 21]: 0; Plant response rating, Foxtail, Giant [13, 22]: 20; Plant response rating, Barnyardgrass [14]: 0; Barnyardgrass plant response rating [14]: 30; Plant response rating, Kochia [15, 21]: 0; Plant response rating, Kochia [15, 22]: 0; Plant response rating, Ryegrass, Italian [16, 21]: 0; Plant response rating, Ryegrass, Italian [16, 22]: 0; Plant response rating, Sedge, Umbrella [17]: 0; Plant response rating, Barnyardgrass [18]: 0; Plant response rating, Ducksalad [19]: 40; Plant response rating, Rice [20]: 0
4 | C#CCOC(=O)c1c(Br)cccc1Oc1ncc(Cl)cn1 [Compound 108] | 0 | 0 | 0 | 0 | 20 | 40 | 20 | 50 | 0 | 10 | 10 | 20 | 0 | 10 | 20 | 40 | 0 | 0 | 0 | 0 | Plant response rating, Ragweed [11, 21]: 0; Plant response rating, Ragweed [11, 22]: 0; Plant response rating, Pigweed [12, 21]: 0; Plant response rating, Pigweed [12, 22]: 70; Plant response rating, Foxtail, Giant [13, 21]: 10; Plant response rating, Foxtail, Giant [13, 22]: 80; Plant response rating, Barnyardgrass [14]: 10; Barnyardgrass plant response rating [14]: 30; Plant response rating, Kochia [15, 21]: 0; Plant response rating, Kochia [15, 22]: 10; Plant response rating, Ryegrass, Italian [16, 21]: 0; Plant response rating, Ryegrass, Italian [16, 22]: 0; Plant response rating, Sedge, Umbrella [17]: 60; Plant response rating, Barnyardgrass [18]: 0; Plant response rating, Ducksalad [19]: 80; Plant response rating, Rice [20]: 0
5 | N#Cc1cccc(Oc2ncc(Cl)cn2)c1C(=O)CCCCC(F)(F)F [Compound 109] | 0 | 0 | 0 | 20 | 0 | 30 | 20 | 60 | 0 | 0 | 10 | 20 | 0 | 0 | 0 | 20 | 0 | 0 | 0 | 0 | Plant response rating, Ragweed [11, 21]: 0; Plant response rating, Ragweed [11, 22]: 0; Plant response rating, Pigweed [12, 21]: 0; Plant response rating, Pigweed [12, 22]: 60; Plant response rating, Foxtail, Giant [13, 21]: 0; Plant response rating, Foxtail, Giant [13, 22]: 40; Plant response rating, Barnyardgrass [14]: 0; Barnyardgrass plant response rating [14]: 20; Plant response rating, Kochia [15, 21]: 0; Plant response rating, Kochia [15, 22]: 0; Plant response rating, Ryegrass, Italian [16, 21]: 0; Plant response rating, Ryegrass, Italian [16, 22]: 0; Plant response rating, Sedge, Umbrella [17]: 0; Plant response rating, Barnyardgrass [18]: 0; Plant response rating, Ducksalad [19]: 0; Plant response rating, Rice [20]: 0
